In PMC11642016 (International Journal of Molecular Sciences, 2024):
Where “and” joins values, the source holds several entries; their conditions need not be identical. Equal entries are not always repeated. Where two headings read alike, the source gives them in different places.

Assays:
Fadu cells = experiment: CellTiter-Glo luminescent cell viability assay, Fadu; conditions: for Fadu Cell viability (% of controll) / viability at 0.7 µM / viability at 1 µM / viability at 1.5 µM / viability at 2.3 µM / viability at 7.7 µM / viability at 17.3 µM / viability at 26 µM: dose–response, individual replicates; for viability at 0.7 µM / viability at 1 µM / viability at 1.5 µM / viability at 2.3 µM / viability at 7.7 µM / viability at 17.3 µM / viability at 26 µM / IC50: Homo sapiens, FaDu; for viability at 0.7 µM: read-out: Fadu Cell viability (% of controll), 0.7 μM; for viability at 1 µM: read-out: Fadu Cell viability (% of controll), 1 μM; for viability at 1.5 µM: read-out: Fadu Cell viability (% of controll), 1.5 μM; for viability at 2.3 µM: read-out: Fadu Cell viability (% of controll), 2.3 μM; for viability at 7.7 µM: read-out: Fadu Cell viability (% of controll), 7.7 μM; for viability at 17.3 µM: read-out: Fadu Cell viability (% of controll), 17.3 μM; for viability at 26 µM: read-out: Fadu Cell viability (% of controll), 26 μM; for Selectivity Index (SI) Fibroblast/Fadu: ratio of mean best-fit IC50 for primary fibroblasts and best-fit IC50 for Fadu
[1] = CellTiter-Glo luminescent cell viability assay, primary fibroblasts; conditions: human, primary skin fibroblasts (non-tumorous), Primer fibroblast Cell viability (% of controll), 72 h, dose–response, individual replicates
[2] = system: non-tumorous primary fibroblast cells; experiment: as above; conditions: for Primer fibroblast Cell viability (% of controll): dose–response, individual replicates; for IC50: Homo sapiens, Fibroblast
PANC-1 cells = experiment: CellTiter-Glo luminescent cell viability assay, PANC-1; conditions: for viability at 0.7 µM: read-out: PANC-1 Cell viability (% of controll), 0.7 μM; for viability at 1 µM: read-out: PANC-1 Cell viability (% of controll), 1 μM; for viability at 1.5 µM: read-out: PANC-1 Cell viability (% of controll), 1.5 μM; for viability at 3.4 µM: read-out: PANC-1 Cell viability (% of controll), 3.4 μM; for viability at 5.1 µM: read-out: PANC-1 Cell viability (% of controll), 5.1 μM; for viability at 7.7 µM: read-out: PANC-1 Cell viability (% of controll), 7.7 μM; for viability at 17.3 µM: read-out: PANC-1 Cell viability (% of controll), 17.3 μM; for viability at 26 µM: read-out: PANC-1 Cell viability (% of controll), 26 μM; for Selectivity Index (SI) Fibroblast/PANC-1: ratio of mean best-fit IC50 for primary fibroblasts and best-fit IC50 for PANC-1
[3] = 72 h, read-out: IC50 Value ± SEM Fadu, 72 h treatment, best-fit values, n = 3
[4] = read-out: Fadu IC50 values, Mean, mean of independently fitted replicate IC50 values (Supplement S.6)
[5] = 72 h, read-out: IC50 Value ± SEM Primary Fibroblast, 72 h treatment, best-fit values, n = 3
[6] = read-out: Primary fibroblast IC50 values, Mean, mean of independently fitted replicate IC50 values (Supplement S.6), ONC201 value mathematically estimated from inflection point
[7] = 0.7 μM, 72 h, dose–response, individual replicates
[8] = 1 μM, 72 h, dose–response, individual replicates
[9] = 1.5 μM, 72 h, dose–response, individual replicates
[10] = 2.3 μM, 72 h, dose–response, individual replicates
[11] = 3.4 μM, 72 h, dose–response, individual replicates
[12] = 5.1 μM, 72 h, dose–response, individual replicates
[13] = 7.7 μM, 72 h, dose–response, individual replicates
[14] = 17.3 μM, 72 h, dose–response, individual replicates
[15] = 26 μM, 72 h, dose–response, individual replicates
[16] = Homo sapiens, PANC-1, 72 h, read-out: IC50 Value ± SEM PANC-1, 72 h treatment, best-fit values, n = 3
[17] = Homo sapiens, PANC-1, 72 h, 72 h, dose–response, individual replicates
[18] = Homo sapiens, PANC-1, read-out: PANC-1 IC50 values, Mean, mean of independently fitted replicate IC50 values (Supplement S.6)

CNCC#Cc1cccc(CN2C(=O)C3=C(CCN(Cc4ccc(-n5cc(-c6cccc(F)c6)nn5)cc4)C3)N3CCN=C23)c1 [43a]
Fadu Cell viability (% of controll) (Fadu cells; 0.7 μM, 72 h): 109 % of controll
Fadu Cell viability (% of controll) (Fadu cells; 1 μM, 72 h): 109 % of controll
Fadu Cell viability (% of controll) (Fadu cells; 1.5 μM, 72 h): 104 % of controll and 103 % of controll
Fadu Cell viability (% of controll) (Fadu cells; 2.3 μM, 72 h): 80 % of controll and 88 % of controll
Fadu Cell viability (% of controll) (Fadu cells; 3.4 μM, 72 h): 71 % of controll and 29 % of controll and 38 % of controll
Fadu Cell viability (% of controll) (Fadu cells; 5.1 μM, 72 h): 5 % of controll and 0 % of controll
Fadu Cell viability (% of controll) (Fadu cells; 7.7 μM, 72 h): 0 % of controll
Fadu Cell viability (% of controll) (Fadu cells; 17.3 μM, 72 h): 0 % of controll
Fadu Cell viability (% of controll) (Fadu cells; 26 μM, 72 h): 0 % of controll
viability at 0.7 µM (Fadu cells; 72 h, 72 h): 108%
viability at 1 µM (Fadu cells; 72 h, 72 h): 112%
viability at 1.5 µM (Fadu cells; 72 h, 72 h): 103%
viability at 2.3 µM (Fadu cells; 72 h, 72 h): 95%
viability at 7.7 µM (Fadu cells; 72 h, 72 h): 0%
viability at 17.3 µM (Fadu cells; 72 h, 72 h): 0%
viability at 26 µM (Fadu cells; 72 h, 72 h): 0%
IC50 (Fadu cells; [3]): 3.2 ± 0.1 µM
IC50 (Fadu cells; [4]): 3.18 µM
Selectivity Index (SI) Fibroblast/Fadu (Fadu cells): 1.0
viability at 72 h, 0.7 µM [1]: 99%
viability at 72 h, 1 µM [1]: 109%
viability at 72 h, 2.3 µM [1]: 111%
viability at 72 h, 3.4 µM ([1]; 3.4 μM): 35%
viability at 72 h, 5.1 µM [1]: 0%
viability at 72 h, 7.7 µM [1]: 0%
viability at 72 h, 17.3 µM [1]: 0%
viability at 72 h, 26 µM [1]: 0%
Primer fibroblast Cell viability (% of controll) ([2]; 0.7 μM, 72 h): 107 % of controll
Primer fibroblast Cell viability (% of controll) ([2]; 1 μM, 72 h): 108 % of controll and 106 % of controll
Primer fibroblast Cell viability (% of controll) ([2]; 1.5 μM, 72 h): 114 % of controll and 125 % of controll and 99 % of controll
Primer fibroblast Cell viability (% of controll) ([2]; 2.3 μM, 72 h): 101 % of controll and 104 % of controll
Primer fibroblast Cell viability (% of controll) ([2]; 3.4 μM, 72 h): 34 % of controll and 29 % of controll
Primer fibroblast Cell viability (% of controll) ([2]; 5.1 μM, 72 h): 0 % of controll
Primer fibroblast Cell viability (% of controll) ([2]; 7.7 μM, 72 h): 0 % of controll
Primer fibroblast Cell viability (% of controll) ([2]; 17.3 μM, 72 h): 0 % of controll
Primer fibroblast Cell viability (% of controll) ([2]; 26 μM, 72 h): 0 % of controll
IC50 [2, 5]: 3.2 ± 0.07 µM
IC50 [2, 6]: 3.23 µM
PANC-1 Cell viability (% of controll) (PANC-1 cells; [7]): 108 % of controll and 111 % of controll
PANC-1 Cell viability (% of controll) (PANC-1 cells; [8]): 112 % of controll and 115 % of controll
PANC-1 Cell viability (% of controll) (PANC-1 cells; [9]): 102 % of controll and 112 % of controll
PANC-1 Cell viability (% of controll) (PANC-1 cells; [10]): 93 % of controll and 84 % of controll and 107 % of controll
PANC-1 Cell viability (% of controll) (PANC-1 cells; [11]): 0 % of controll
PANC-1 Cell viability (% of controll) (PANC-1 cells; [12]): 0 % of controll
PANC-1 Cell viability (% of controll) (PANC-1 cells; [13]): 0 % of controll
PANC-1 Cell viability (% of controll) (PANC-1 cells; [14]): 0 % of controll
PANC-1 Cell viability (% of controll) (PANC-1 cells; [15]): 0 % of controll
IC50 (PANC-1 cells; [16]): 2.5 ± 0.94 µM
viability at 0.7 µM (PANC-1 cells; [17]): 114%
viability at 1 µM (PANC-1 cells; [17]): 110%
viability at 1.5 µM (PANC-1 cells; [17]): 102%
viability at 3.4 µM (PANC-1 cells; [17]): 0%
viability at 5.1 µM (PANC-1 cells; [17]): 0%
viability at 7.7 µM (PANC-1 cells; [17]): 0%
viability at 17.3 µM (PANC-1 cells; [17]): 0%
viability at 26 µM (PANC-1 cells; [17]): 0%
IC50 (PANC-1 cells; [18]): 2.48 µM
Selectivity Index (SI) Fibroblast/PANC-1 (PANC-1 cells): 1.3

CNCC#Cc1cccc(CN2C(=O)C3=C(CCN(Cc4ccc(-n5cc(-c6ccc(F)cc6)nn5)cc4)C3)N3CCN=C23)c1 [43b]
Fadu Cell viability (% of controll) (Fadu cells; 0.7 μM, 72 h): 108 % of controll and 104 % of controll
Fadu Cell viability (% of controll) (Fadu cells; 1 μM, 72 h): 106 % of controll and 101 % of controll
Fadu Cell viability (% of controll) (Fadu cells; 2.3 μM, 72 h): 96 % of controll and 91 % of controll
Fadu Cell viability (% of controll) (Fadu cells; 3.4 μM, 72 h): 58 % of controll and 46 % of controll and 27 % of controll
Fadu Cell viability (% of controll) (Fadu cells; 5.1 μM, 72 h): 1 % of controll and 0 % of controll
Fadu Cell viability (% of controll) (Fadu cells; 7.7 μM, 72 h): 0 % of controll
Fadu Cell viability (% of controll) (Fadu cells; 17.3 μM, 72 h): 0 % of controll
Fadu Cell viability (% of controll) (Fadu cells; 26 μM, 72 h): 0 % of controll
viability at 0.7 µM (Fadu cells; 72 h, 72 h): 108%
viability at 1 µM (Fadu cells; 72 h, 72 h): 102%
viability at 1.5 µM (Fadu cells; 72 h, 72 h): 105%
viability at 2.3 µM (Fadu cells; 72 h, 72 h): 91%
viability at 7.7 µM (Fadu cells; 72 h, 72 h): 0%
viability at 17.3 µM (Fadu cells; 72 h, 72 h): 0%
viability at 26 µM (Fadu cells; 72 h, 72 h): 0%
IC50 (Fadu cells; [3]): 3.2 ± 0.06 µM
IC50 (Fadu cells; [4]): 3.25 µM
Selectivity Index (SI) Fibroblast/Fadu (Fadu cells): 1.1
viability at 72 h, 0.7 µM [1]: 96%
viability at 72 h, 1 µM [1]: 102%
viability at 72 h, 1.5 µM ([1]; 1.5 μM): 107%
viability at 72 h, 2.3 µM [1]: 105%
viability at 72 h, 5.1 µM [1]: 0%
viability at 72 h, 7.7 µM [1]: 0%
viability at 72 h, 17.3 µM [1]: 0%
viability at 72 h, 26 µM [1]: 0%
Primer fibroblast Cell viability (% of controll) ([2]; 0.7 μM, 72 h): 105 % of controll and 104 % of controll
Primer fibroblast Cell viability (% of controll) ([2]; 1 μM, 72 h): 113 % of controll and 103 % of controll
Primer fibroblast Cell viability (% of controll) ([2]; 1.5 μM, 72 h): 105 % of controll and 97 % of controll
Primer fibroblast Cell viability (% of controll) ([2]; 2.3 μM, 72 h): 99 % of controll
Primer fibroblast Cell viability (% of controll) ([2]; 3.4 μM, 72 h): 89 % of controll and 54 % of controll and 50 % of controll
Primer fibroblast Cell viability (% of controll) ([2]; 5.1 μM, 72 h): 0 % of controll
Primer fibroblast Cell viability (% of controll) ([2]; 7.7 μM, 72 h): 0 % of controll
Primer fibroblast Cell viability (% of controll) ([2]; 17.3 μM, 72 h): 0 % of controll
Primer fibroblast Cell viability (% of controll) ([2]; 26 μM, 72 h): 0 % of controll
IC50 [2, 5]: 3.5 ± 0.17 µM
IC50 [2, 6]: 3.46 µM
PANC-1 Cell viability (% of controll) (PANC-1 cells; [7]): 103 % of controll and 101 % of controll
PANC-1 Cell viability (% of controll) (PANC-1 cells; [8]): 107 % of controll
PANC-1 Cell viability (% of controll) (PANC-1 cells; [9]): 99 % of controll and 110 % of controll
PANC-1 Cell viability (% of controll) (PANC-1 cells; [10]): 102 % of controll and 103 % of controll
PANC-1 Cell viability (% of controll) (PANC-1 cells; [11]): 10 % of controll and 7 % of controll
PANC-1 Cell viability (% of controll) (PANC-1 cells; [12]): 0 % of controll
PANC-1 Cell viability (% of controll) (PANC-1 cells; [13]): 0 % of controll
PANC-1 Cell viability (% of controll) (PANC-1 cells; [14]): 0 % of controll
PANC-1 Cell viability (% of controll) (PANC-1 cells; [15]): 0 % of controll
IC50 (PANC-1 cells; [16]): 3.1 ± 0.17 µM
viability at 0.7 µM (PANC-1 cells; [17]): 104%
viability at 1 µM (PANC-1 cells; [17]): 104%
viability at 1.5 µM (PANC-1 cells; [17]): 104%
viability at 2.3 µM (PANC-1 cells; Homo sapiens, PANC-1, 72 h, read-out: PANC-1 Cell viability (% of controll), 2.3 μM, 72 h, dose–response, individual replicates): 106%
viability at 3.4 µM (PANC-1 cells; [17]): 13%
viability at 5.1 µM (PANC-1 cells; [17]): 0%
viability at 7.7 µM (PANC-1 cells; [17]): 0%
viability at 17.3 µM (PANC-1 cells; [17]): 0%
viability at 26 µM (PANC-1 cells; [17]): 0%
IC50 (PANC-1 cells; [18]): 3.06 µM
Selectivity Index (SI) Fibroblast/PANC-1 (PANC-1 cells): 1.1
